Data taken from EP0556482B1, “Propyl endopeptidase inhibitor” (SNOW BRAND MILK PRODUCTS CO., LTD., priority 1991, dated 1993).
Like-named read-outs stand apart in the source and are kept apart here. *1 amine or outer side, *2 acyl side, *3 side chain or, on linkers, in order; H or OH if unused. Where a SMILES comes first, the peptide text is derived from it. Bridges are numbered along the chain shown (N, C = ends). [ ]: non-standard residue; d: D form. The star is where a group is joined. Undeca(2Z,4E)dienoyl(10-Me) = CC(C)CCCC/C=C/C=C\C(=O)*; Phg(3,5-Cl2-4-OH) = N[C@H](C(=O)O)c1cc(Cl)c(O)c(Cl)c1; X1 = N=C1NC[C@@H](C[C@@H](N[*:1])C(=O)[*:2])N1; X2 = N=C1NC[C@@H](C[C@H](N[*:1])C(=O)[*:2])N1; d(aThr) = C[C@@H](O)[C@@H](N)C(=O)O; dHpg = N[C@@H](C(=O)O)c1ccc(O)cc1; Hpg = N[C@H](C(=O)O)c1ccc(O)cc1; Cit = NC(=O)NCCC[C@H](N)C(=O)O; aThr = C[C@H](O)[C@H](N)C(=O)O; dOrn = NCCC[C@@H](N)C(=O)O

Tests used:
[1] = system: rat; conditions: in vivo, iv; cited from earlier work
[2] = molecular target: T1, prolyl endopeptidase derived from human placenta (Homo sapiens, UniProt P48147); assay: Prolyl endopeptidase inhibitive activity, human placenta enzyme (fluorometric, Z-Gly-Pro-7-AMC substrate); assay type: biochemical; parameters: obtaining a supernatant, from which microsome fractions had been removed, as a prolyl endopeptidase fraction; from tissue; host or cells: human placenta, cytosol fraction (104,000 x g supernatant), crude enzyme
T1 sequence (P48147 1-710): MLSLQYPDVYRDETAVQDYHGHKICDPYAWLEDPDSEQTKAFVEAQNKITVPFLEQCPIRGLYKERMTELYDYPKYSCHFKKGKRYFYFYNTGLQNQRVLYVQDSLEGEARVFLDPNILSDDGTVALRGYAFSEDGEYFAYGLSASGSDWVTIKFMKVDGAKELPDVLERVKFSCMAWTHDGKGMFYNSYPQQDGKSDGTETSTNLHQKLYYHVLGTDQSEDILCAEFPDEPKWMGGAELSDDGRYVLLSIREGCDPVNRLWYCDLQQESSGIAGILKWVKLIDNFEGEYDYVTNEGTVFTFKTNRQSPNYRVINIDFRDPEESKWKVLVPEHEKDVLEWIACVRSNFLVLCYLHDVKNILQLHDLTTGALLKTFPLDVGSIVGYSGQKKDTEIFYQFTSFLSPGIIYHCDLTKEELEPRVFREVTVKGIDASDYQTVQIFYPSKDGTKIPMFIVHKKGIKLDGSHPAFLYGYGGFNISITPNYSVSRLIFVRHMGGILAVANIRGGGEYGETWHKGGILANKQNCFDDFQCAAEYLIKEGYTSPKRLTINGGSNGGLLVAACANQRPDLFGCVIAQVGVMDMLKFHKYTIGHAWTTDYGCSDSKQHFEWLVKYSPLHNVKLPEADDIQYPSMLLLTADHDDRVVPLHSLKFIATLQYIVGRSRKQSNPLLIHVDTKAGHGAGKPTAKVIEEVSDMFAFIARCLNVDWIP
Method: (§1) The inhibitive activity of enduracidin A was measured by using a methanol solution of this compound.
(§2) The prolyl endopeptidase inhibitive activity in the present invention was measured by the following method. Prolyl endopeptidase from human placenta was prepared according to the method for preparing aromatase [Chem. Pharm. […] The placenta tissues were pulverized and homogenized with a 67 mM potassium phosphate buffer (pH 7.5) containing 5 mM DTT and 0.25 M sucrose. The homogenized solution was centrifuged at 10,000 x g for 30 minutes to obtain a supernatant.
To carry out the enzyme reaction, 0.01 ml of each sample dissolved in methanol in various concentrations and 0.01 ml of the placenta cytosol fraction were added to 0.96 ml of a 0.1 M Tris-HCl buffer solution (pH 7.0), and the resulting solution was mixed and incubated at 37°C for 5 minutes. The reaction was initiated by the addition of 0.02 ml of a 2 mM solution of synthesized substrate, Z-Gly-Pro-7-AMC (a product of Cambridge Research Biochemicals), dissolved in 40% dioxane to said solution, and continued for 10 minutes at 37°C. […]
(§3) The inhibition rate was determined by the formula, [(A-B)/A] x 100 (%), wherein A represents a fluorescent concentration of liberated 7-AMC in the reaction of the control and B is a fluorescent concentration of liberated 7-AMC in the reaction to which a sample was added.

[3] = system: mouse; conditions: in vivo, ip; cited from earlier work
[4] = molecular target: T2, prolyl endopeptidase derived from Flavobacterium (Elizabethkingia meningoseptica, UniProt P27028); assay type: biochemical; conditions: Table 1; enzyme from Flavobacterium; read-out: IC₅₀ (µM) Flavobacterium
T2 construct: purchased Seikagaku Kogyo Co
T2 sequence (P27028 21-705): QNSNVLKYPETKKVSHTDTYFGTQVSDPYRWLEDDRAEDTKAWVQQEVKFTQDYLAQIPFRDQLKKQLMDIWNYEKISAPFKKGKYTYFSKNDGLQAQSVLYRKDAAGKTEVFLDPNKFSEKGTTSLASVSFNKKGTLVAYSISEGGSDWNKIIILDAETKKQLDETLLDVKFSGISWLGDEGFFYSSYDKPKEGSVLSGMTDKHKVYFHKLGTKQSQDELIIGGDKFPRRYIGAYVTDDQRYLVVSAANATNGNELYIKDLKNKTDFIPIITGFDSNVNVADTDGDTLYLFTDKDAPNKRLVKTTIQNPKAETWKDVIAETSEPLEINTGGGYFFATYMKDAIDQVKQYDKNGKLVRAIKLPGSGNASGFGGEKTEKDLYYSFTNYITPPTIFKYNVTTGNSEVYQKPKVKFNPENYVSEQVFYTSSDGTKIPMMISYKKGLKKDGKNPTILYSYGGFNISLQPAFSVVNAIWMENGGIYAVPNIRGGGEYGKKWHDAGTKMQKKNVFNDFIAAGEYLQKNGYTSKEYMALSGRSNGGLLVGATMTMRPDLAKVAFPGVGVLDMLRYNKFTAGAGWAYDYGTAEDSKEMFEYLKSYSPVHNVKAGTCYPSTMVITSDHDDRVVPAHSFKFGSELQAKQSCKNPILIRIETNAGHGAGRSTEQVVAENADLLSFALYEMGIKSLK
Method: as §1, §3

[5] = molecular target: T1, prolyl endopeptidase derived from human placenta; assay: Prolyl endopeptidase inhibitive activity, human placenta enzyme (fluorometric, Z-Gly-Pro-7-AMC substrate); assay type: biochemical; parameters: obtaining a supernatant, from which microsome fractions had been removed, as a prolyl endopeptidase fraction; from tissue; host or cells: human placenta, cytosol fraction (104,000 x g supernatant)
Method: as §1, §2
To carry out the enzyme reaction, 0.01 ml of each sample dissolved in methanol in various concentrations and 0.01 ml of the placenta cytosol fraction were added to 0.96 ml of a 0.1 M Tris-HCl buffer solution (pH 7.0), and the resulting solution was mixed and incubated at 37°C for 5 minutes. The reaction was initiated by the addition of 0.02 ml of a 2 mM solution of synthesized substrate, Z-Gly-Pro-7-AMC (a product of Cambridge Research Biochemicals), dissolved in 40% dioxane to said solution, and continued for 10 minutes at 37°C. After the reaction, 0.5 ml of a reaction termination agent (10 g of Triton X-100/95 ml, 1 M acetate buffer, pH 4.0) and 2 ml of water were added to measure 7-AMC (7-amino-4-methylcoumarin) liberated by the reaction at an excitation wavelength of 380 nm and an emission wavelength of 460 nm.
as §3

[6] = comparison of both enzymes, in words

CC(C)CCCC/C=C/C=C\C(=O)N[C@@H](CC(=O)O)C(=O)N[C@@H]1C(=O)N[C@H](c2ccc(O)cc2)C(=O)N[C@H](CCCN)C(=O)N[C@H]([C@@H](C)O)C(=O)N[C@@H](c2ccc(O)cc2)C(=O)N[C@H](c2ccc(O)cc2)C(=O)N[C@@H]([C@H](C)O)C(=O)N[C@@H](CCCNC(N)=O)C(=O)N[C@H](C[C@@H]2CNC(=N)N2)C(=O)N[C@@H](c2ccc(O)cc2)C(=O)N[C@H](CO)C(=O)N[C@@H](c2cc(Cl)c(O)c(Cl)c2)C(=O)NCC(=O)N[C@@H](C[C@@H]2CNC(=N)N2)C(=O)N[C@H](C)C(=O)N[C@@H](c2ccc(O)cc2)C(=O)O[C@@H]1C [Enduracidin A] ({Undeca(2Z,4E)dienoyl(10-Me)}-DT[dHpg][dOrn][d(aThr)][Hpg][dHpg][aThr][Cit][X1][Hpg][dS][Phg(3,5-Cl2-4-OH)]G[X2][dA][Hpg]; ester 2-C)
acute toxicity LD₅₀ [1]: > 300 mg/kg | mode of inhibition ([2]; Dixon Plot, enzyme from human placenta): noncompetitive inhibition | specificity: inhibitive activity to enzyme from human placenta compared with enzyme from Flavobacterium [2, 6]: much higher specificity to the enzyme derived from human placenta | acute toxicity LD₅₀ [3]: greater than 400 mg/kg

CC[C@H](C)[C@H](NC(=O)[C@H](Cc1ccccc1)NC(=O)[C@@H](NC(=O)[C@H](Cc1c[nH]cn1)NC(=O)CNC(=O)CNC(=O)[C@H](Cc1ccccc1)NC(=O)[C@H](CC(C)C)NC(=O)[C@@H]1CC(=O)NCC(=O)N[C@@H](Cc2ccc(O)cc2)C(=O)N2CCC[C@H]2C(=O)N[C@@H](Cc2c[nH]c3ccccc23)C(=O)N[C@@H](Cc2c[nH]c3ccccc23)C(=O)N[C@@H](CC(=O)O)C(=O)N[C@@H](Cc2ccc(O)cc2)C(=O)N[C@@H](CCCNC(=N)N)C(=O)N1)[C@@H](C)O)C(=O)N[C@@H](CO)C(=O)N1CCC[C@H]1C(=O)O [SNA-115] (GYPWWDYRDLFGGHTFISP-OH; lactam N-9)
IC50 [4]: 0.35 µM | IC50 ([5]; Table 1, enzyme from human placenta, read-out: IC₅₀ (µM) Human placenta): 0.22 µM | specificity: inhibitive activity to enzyme from human placenta compared with enzyme from Flavobacterium [5, 6]: almost the same degree of inhibitive activity

CN[C@@H]1C[C@H]2O[C@@](C)([C@@H]1OC)n1c3ccccc3c3c4c(c5c6ccccc6n2c5c31)C(=O)NC4 [Staurosporine]
IC50 [5]: > 107 µM | inhibitive activity to the enzyme derived from human placenta ([5]; result in words): very weak inhibitive activity
